{"source": "patent US20190055576A1", "about": "“USE OF HERBICIDE-TOLERANT PROTEIN” (BEIJING DABEINONG TECHNOLOGY GROUP CO., LTD., priority 2016, published 2019)", "test_system": "transgenic soybean plants (Gm cytoplasmic/chloroplastic ALT-1-01, ALT-2-01, ALT-3-01)", "assay": "Sulfometuron-methyl tolerance of transgenic soybean plants, damage degree by leaf curl and growth point damage", "assay_type": "in vivo", "conditions": "120 g ai/ha; for Average damage % 3DAT / Average damage % 7DAT / Average damage % 14DAT / Average damage % 21DAT: 4-fold field concentration; for Average damage % 3DAT: 3 days after spraying; for Average damage % 7DAT: 7 days after spraying; for Average damage % 14DAT: 14 days after spraying; for Average damage % 21DAT: 21 days after spraying", "from_the_text": "The herbicide tolerance effects of Gm cytoplasmic ALT-1-01 soybean plants, Gm chloroplastic ALT-1-01 soybean plants, Gm cytoplasmic ALT-2-01 soybean plants, Gm chloroplastic ALT-2-01 soybean plants, Gm cytoplasmic ALT-3-01 soybean plants, Gm chloroplastic ALT-3-01 soybean plants and wild-type soybean plants on Sulfometuron-methyl were detected (at seedling stage), respectively.\nGm cytoplasmic ALT-1-01 soybean plants, Gm chloroplastic ALT-1-01 soybean plants, Gm cytoplasmic ALT-2-01 soybean plants, Gm chloroplastic ALT-2-01 soybean plants, Gm cytoplasmic ALT-3-01 soybean plants, Gm chloroplastic ALT-3-01 soybean plants and wild-type soybean plants were respectively taken and sprayed with Sulfometuron-methyl (120 g ai/ha, 4-fold field concentration) and a blank solvent (water). The damage degree caused by the herbicide was measured for each plant according to the leaf curl degree and the growth point damage degree 3 days after spraying (3 DAT), 7 days after spraying (7 DAT), 14 days after spraying (14 DAT) and 21 days after spraying (21 DAT), respectively: considering conditions of leaves being flat as the untreated plants and growth points being intact as having a damage degree of 0%; considering conditions of veins being locally browned, new leaves being malformed and plant growth being slow as having a damage degree of 50%; and considering conditions of veins being purple to whole plant being dead and growth points being browned and dry as having a damage degree of 100%. There were 2 strains in Gm cytoplasmic ALT-1-01 soybean plants in total (S1 and S2), 2 strains in Gm chloroplastic ALT-1-01 soybean plants in total (S3 and S4), 2 strains in Gm cytoplasmic ALT-2-01 soybean plants in total (S5 and S6), 2 strains in Gm chloroplastic ALT-2-01 soybean plants in total (S7 and S8), 2 strains in Gm cytoplasmic ALT-3-01 soybean plants in total (S9 and S10), 2 strains in Gm chloroplastic ALT-3-01 soybean plants in total (S11 and S12), and 1 strain in wild-type soybean plants (CK1) in total; and 10-15 plants were selected from each strain and tested.", "key": {"[1]": {"conditions": "strain S1 (Gm cytoplasmic ALT-1-01 soybean)"}, "[2]": {"conditions": "strain S2 (Gm cytoplasmic ALT-1-01 soybean)"}, "[3]": {"conditions": "strain S3 (Gm chloroplastic ALT-1-01 soybean)"}, "[4]": {"conditions": "strain S4 (Gm chloroplastic ALT-1-01 soybean)"}, "[5]": {"conditions": "strain S5 (Gm cytoplasmic ALT-2-01 soybean)"}, "[6]": {"conditions": "strain S6 (Gm cytoplasmic ALT-2-01 soybean)"}, "[7]": {"conditions": "strain S7 (Gm chloroplastic ALT-2-01 soybean)"}, "[8]": {"conditions": "strain S8 (Gm chloroplastic ALT-2-01 soybean)"}, "[9]": {"conditions": "strain S9 (Gm cytoplasmic ALT-3-01 soybean)"}, "[10]": {"conditions": "strain S10 (Gm cytoplasmic ALT-3-01 soybean)"}, "[11]": {"conditions": "strain S11 (Gm chloroplastic ALT-3-01 soybean)"}, "[12]": {"conditions": "strain S12 (Gm chloroplastic ALT-3-01 soybean)"}}}
{"smiles": "COC(=O)c1ccccc1S(=O)(=O)NC(=O)Nc1nc(C)cc(C)n1", "note": "[Sulfometuron-methyl, 2-(4,6-dimethylpyrimidine-2-amino-formamido-sulfonyl) methyl benzoate]", "values": [{"measurement": "Average damage % 3DAT", "setting": "[1]", "result": 6, "unit": "%"}, {"measurement": "Average damage % 7DAT", "setting": "[1]", "result": 0, "unit": "%"}, {"measurement": "Average damage % 14DAT", "setting": "[1]", "result": 0, "unit": "%"}, {"measurement": "Average damage % 21DAT", "setting": "[1]", "result": 0, "unit": "%"}, {"measurement": "Average damage % 3DAT", "setting": "[2]", "result": 7, "unit": "%"}, {"measurement": "Average damage % 7DAT", "setting": "[2]", "result": 0, "unit": "%"}, {"measurement": "Average damage % 14DAT", "setting": "[2]", "result": 0, "unit": "%"}, {"measurement": "Average damage % 21DAT", "setting": "[2]", "result": 0, "unit": "%"}, {"measurement": "Average damage % 3DAT", "setting": "[3]", "result": 0, "unit": "%"}, {"measurement": "Average damage % 7DAT", "setting": "[3]", "result": 0, "unit": "%"}, {"measurement": "Average damage % 14DAT", "setting": "[3]", "result": 0, "unit": "%"}, {"measurement": "Average damage % 21DAT", "setting": "[3]", "result": 0, "unit": "%"}, {"measurement": "Average damage % 3DAT", "setting": "[4]", "result": 0, "unit": "%"}, {"measurement": "Average damage % 7DAT", "setting": "[4]", "result": 0, "unit": "%"}, {"measurement": "Average damage % 14DAT", "setting": "[4]", "result": 0, "unit": "%"}, {"measurement": "Average damage % 21DAT", "setting": "[4]", "result": 0, "unit": "%"}, {"measurement": "Average damage % 3DAT", "setting": "[5]", "result": 6, "unit": "%"}, {"measurement": "Average damage % 7DAT", "setting": "[5]", "result": 0, "unit": "%"}, {"measurement": "Average damage % 14DAT", "setting": "[5]", "result": 0, "unit": "%"}, {"measurement": "Average damage % 21DAT", "setting": "[5]", "result": 0, "unit": "%"}, {"measurement": "Average damage % 3DAT", "setting": "[6]", "result": 5, "unit": "%"}, {"measurement": "Average damage % 7DAT", "setting": "[6]", "result": 0, "unit": "%"}, {"measurement": "Average damage % 14DAT", "setting": "[6]", "result": 0, "unit": "%"}, {"measurement": "Average damage % 21DAT", "setting": "[6]", "result": 0, "unit": "%"}, {"measurement": "Average damage % 3DAT", "setting": "[7]", "result": 0, "unit": "%"}, {"measurement": "Average damage % 7DAT", "setting": "[7]", "result": 0, "unit": "%"}, {"measurement": "Average damage % 14DAT", "setting": "[7]", "result": 0, "unit": "%"}, {"measurement": "Average damage % 21DAT", "setting": "[7]", "result": 0, "unit": "%"}, {"measurement": "Average damage % 3DAT", "setting": "[8]", "result": 0, "unit": "%"}, {"measurement": "Average damage % 7DAT", "setting": "[8]", "result": 0, "unit": "%"}, {"measurement": "Average damage % 14DAT", "setting": "[8]", "result": 0, "unit": "%"}, {"measurement": "Average damage % 21DAT", "setting": "[8]", "result": 0, "unit": "%"}, {"measurement": "Average damage % 3DAT", "setting": "[9]", "result": 8, "unit": "%"}, {"measurement": "Average damage % 7DAT", "setting": "[9]", "result": 0, "unit": "%"}, {"measurement": "Average damage % 14DAT", "setting": "[9]", "result": 0, "unit": "%"}, {"measurement": "Average damage % 21DAT", "setting": "[9]", "result": 0, "unit": "%"}, {"measurement": "Average damage % 3DAT", "setting": "[10]", "result": 7, "unit": "%"}, {"measurement": "Average damage % 7DAT", "setting": "[10]", "result": 0, "unit": "%"}, {"measurement": "Average damage % 14DAT", "setting": "[10]", "result": 0, "unit": "%"}, {"measurement": "Average damage % 21DAT", "setting": "[10]", "result": 0, "unit": "%"}, {"measurement": "Average damage % 3DAT", "setting": "[11]", "result": 0, "unit": "%"}, {"measurement": "Average damage % 7DAT", "setting": "[11]", "result": 0, "unit": "%"}, {"measurement": "Average damage % 14DAT", "setting": "[11]", "result": 0, "unit": "%"}, {"measurement": "Average damage % 21DAT", "setting": "[11]", "result": 0, "unit": "%"}, {"measurement": "Average damage % 3DAT", "setting": "[12]", "result": 0, "unit": "%"}, {"measurement": "Average damage % 7DAT", "setting": "[12]", "result": 0, "unit": "%"}, {"measurement": "Average damage % 14DAT", "setting": "[12]", "result": 0, "unit": "%"}, {"measurement": "Average damage % 21DAT", "setting": "[12]", "result": 0, "unit": "%"}, {"measurement": "herbicide tolerance conferred by the thifensulfuron hydrolase (ALT-1, ALT-2 and ALT-3)", "setting": "transgenic soybean plants", "result": "conferred a high level of Sulfometuron-methyl herbicide tolerance"}]}
